The values that follow come from article PMC12656566, “Toxicokinetic Characterization of MDM Hydantoin via Stable Metabolite DMH: Population Modeling for Predicting Dermal Formaldehyde Formation” (Toxics, 2025).

Like-named read-outs stand apart in the source and are kept apart here.

A short description of data set [1]: Stability of MDMH and DMH in rat plasma and processed samples. It is filed as in vitro ADME. Conditions: n = 5; for Processed sample stability: autosampler at 4 °C for 24 h; for Short-term stability / Freeze–thaw stability / Long-term stability: rat plasma; for Short-term stability: room temperature (25 °C) for 4 h; for Freeze–thaw stability: three freeze–thaw cycles; for Long-term stability: −20 °C for 4 weeks. How it is done: Short-term stability of MDMH and DMH in rat plasma was evaluated at room temperature for 4 h. Long-term stability was assessed following storage at −20 °C for 4 weeks. Freeze–thaw stability was determined after three freeze–thaw cycles. Additionally, processed sample stability was evaluated in the autosampler at 4 °C for 24 h. Stability was considered acceptable when the mean deviation from theoretical concentrations was within ±15%.
Stability studies were conducted using five replicates of low and high quality control samples under various analytical conditions, with results shown in Table 3. Short-term stability was evaluated at room temperature (25 °C) for 4 h, showing mean recoveries within acceptable limits for both analytes. Long-term stability was assessed following storage at −20 °C for 4 weeks, with recoveries remaining within ±15% of theoretical concentrations. Freeze–thaw stability was evaluated after three freeze–thaw cycles. Processed sample stability in the autosampler at 4 °C for 24 h was also within acceptable ranges.

The nature of data set [2]: Population toxicokinetic modeling of MDMH and DMH plasma data (IV and TD). It is filed as in vivo. The conditions noted are these: population estimate, rats; for Vd / clearance: male, Sprague-Dawley, rat, plasma, other: intravenous and transdermal data pooled. How it is done: POP-TK modeling was performed to develop a compartment model describing the disposition of MDMH and DMH following different administration routes. Plasma concentration data from all studies were combined for model development.
The compartment model was designed to fit the absorption phase following TD application, disposition kinetics of MDMH and DMH following IV injection. The disposition phase of MDMH was described with a one-compartment model.
For transdermal application, MDMH applied to the skin undergoes simultaneous absorption and metabolic conversion to DMH and formaldehyde. This process was described by a first-order rate constant (ka,met) representing the combined absorption-metabolism kinetics. The parameter Fa,met represents the fraction of applied dose that penetrates the skin and undergoes metabolic conversion, accounting for incomplete absorption.
DMH formed in the skin compartment subsequently undergoes absorption into systemic circulation. This absorption was modeled using a first-order rate constant (ka,DMH) with three transit compartments to describe the delayed appearance of DMH in plasma.
The disposition of MDMH and DMH was assessed using a linear model with a central and one, two, or three peripheral compartments. The model incorporated both skin metabolism and systemic metabolism of MDMH to DMH. Systemic metabolism was described by the […], representing the fraction of eliminated MDMH that is converted to DMH in the central compartment. Molecular weight correction was applied to account for stoichiometric conversion relationships.
The final disposition and elimination compartment model was determined to use one central compartment for MDMH and one central and one peripheral compartment for DMH based on the objective function.
The differential equations for the amounts of MDMH in the central (XCentral,MDMH) compartments and DMH in the central (XCentral,DMH) and peripheral (XPeripheral,DMH) compartments were:(7) dXCentral,MDMH/dt=−CLMDMH·CCentral,MDMH (8) dXCentral,DMH/dt=−CLDMH·CCentral,DMH−CLDDMH·CCentral,DMH+CLDDMH·CPeripheral,DMH+ka,DMH·XTransit3,DMH+(MWDMH/MWMDMH)·CLMDMH·CCentral,MDMH (9) dXPeripheral,DMH/dt=+CLDDMH·CCentral,DMH−CLDDMH·CPeripheral,DMH
CCentral,MDMH and CCentral,DMH represent MDMH and DMH plasma concentrations in respective compartments and CPeripheral,DMH represent DMH concentration in peripheral compartment. CLMDMH and CLDMH were systemic clearance of MDMH and DMH and CLDDMH was distribution clearance.
The plasma concentrations of MDMH and DMH were simultaneously modeled and predicted using POP-TK modeling with the stochastic approximation expectation maximization (SAEM) algorithm in the parallelized Monolix® 2023R1 (Lixoft, Antony, Paris, France) and Berkeley Madonna version 8.3.11 (University of California at Berkeley, Berkeley, CA, USA). An importance sampling SAEM was used for population parameter estimation to describe the between-subject variability (BSV) for each parameter estimate.

As to `CC1(C)NC(=O)NC1=O` [DMH, 5,5-dimethylhydantoin], in data set [1] (High QC), the Processed sample stability amounted to 113.2 ± 1.5%, the Short-term stability was 101.0 ± 1.9%, the “Freeze–thaw stability” value is given as 93.2 ± 5.8% and the Long-term stability amounted to 112.0 ± 3.2%. Further, in data set [1] (Low QC), the Processed sample stability amounted to 90.9 ± 6.9%, the Short-term stability worked out at 102.0 ± 1.4%, the “Freeze–thaw stability” value is given as 89.3 ± 3.8% and the Long-term stability stood at 106.2 ± 4.3%. Besides, the Vd in data set [2] (Mean (BSV), read-out: Central volume of distribution for DMH (Vc,DMH)) is 0.32 L. Also, the clearance in data set [2] (Mean (BSV), read-out: Clearance for DMH (CLDMH) (converted)) was 3.17 mL/min. Further, in data set [2] (Mean (BSV)), the “Absorption rate constant for DMH into the central compartment from skin (ka,DMH)” value is recorded as 8.03 (38.33) 1/h, the “Distribution clearance for DMH (CLDDMH)” value is recorded as 5.73 (71.8) L/h and the “Peripheral volume of distribution for DMH (Vp,DMH)” value is listed as 0.43 (35.86) L. In addition, the “absorption rate constant for DMH (ka,DMH)” value in data set [2] was 8.03 h⁻¹.
In the case of `CC1(C)C(=O)NC(=O)N1CO` [MDMH, 1-(Hydroxymethyl)-5,5-dimethylhydantoin], in data set [1] (High QC), the Processed sample stability is given as 112.0 ± 3.5%, the Short-term stability is given as 99.7 ± 1.3%, the “Freeze–thaw stability” value worked out at 94.0 ± 1.8% and the Long-term stability is recorded as 109.0 ± 3.9%. For the same compound, in data set [1] (Low QC), the Processed sample stability amounted to 98.9 ± 4.7%, the Short-term stability is on record as 102.6 ± 1.5%, the “Freeze–thaw stability” value was found to be 90.1 ± 4.1% and the Long-term stability came to 110.4 ± 1.1%. Besides, in data set [2] (Mean (BSV), read-out: Central volume of distribution for MDMH (Vc,MDMH)), the Vd was 1.18 L. In addition, in data set [2] (Mean (BSV), read-out: Clearance for MDMH (CLMDMH) (converted)), the clearance was 2460 mL/min. In data set [2] (Mean (BSV)), the “Absorption-metabolism rate constant for MDMH in skin (Ka,met)” value is 0.31 (6.44) 1/h. In data set [2], the “combined absorption-metabolism rate constant (ka,met)” value is 0.31 h⁻¹.
